Common to all, as to type: functional, organism-based
The subject of assay [1] is Ceratobasidium cereale. Briefly: Antifungal activity against Ceratobasidium cereale two generation induced iprodione-resistant wheat field isolate HQ31R assessed as mycelial growth inhibition in potato dextrose agar media at 25 degC measured after 3 days. Conditions: 72 h.
Assay [2] has as its system Ceratobasidium cereale. Briefly: Antifungal activity against Ceratobasidium cereale iprodione-sensitive wheat field isolate HQ31 assessed as mycelial growth inhibition in potato dextrose agar media at 25 degC measured after 3 days. Particulars: isolate HQ31, 72 h.
Assay [3] deals with Ceratobasidium cereale. Briefly: Antifungal activity against Ceratobasidium cereale two generation induced iprodione-resistant wheat field isolate HN49R assessed as mycelial growth inhibition in potato dextrose agar media at 25 degC measured after 3 days. Particulars: 72 h.
Assay [4] concerns Ceratobasidium cereale. Briefly: Antifungal activity against Ceratobasidium cereale iprodione-sensitive wheat field isolate HQ3 assessed as mycelial growth inhibition in potato dextrose agar media at 25 degC measured after 3 days. Particulars: isolate HQ3, 72 h.
The subject of assay [5] is Ceratobasidium cereale. Briefly: Antifungal activity against Ceratobasidium cereale wheat field isolate assessed as mycelial growth inhibition at 25 degC measured after 3 days. Conditions: 72 h.
The test system of assay [6] is Ceratobasidium cereale. Briefly: Antifungal activity against Ceratobasidium cereale two generation induced iprodione-resistant wheat field isolate HL64R assessed as mycelial growth inhibition in potato dextrose agar media at 25 degC measured after 3 days. Particulars: 72 h.
Assay [7] has as its system Ceratobasidium cereale. Briefly: Antifungal activity against Ceratobasidium cereale iprodione-sensitive wheat field isolate HN100 assessed as mycelial growth inhibition in potato dextrose agar media at 25 degC measured after 3 days. Conditions: isolate HN100, 72 h.
Assay [8] deals with Ceratobasidium cereale. Briefly: Antifungal activity against Ceratobasidium cereale two generation induced iprodione-resistant wheat field isolate HQ12R assessed as mycelial growth inhibition in potato dextrose agar media at 25 degC measured after 3 days. Conditions: 72 h.
Assay [9] has as its system Ceratobasidium cereale. Briefly: Antifungal activity against Ceratobasidium cereale two generation induced iprodione-resistant wheat field isolate HQ3R assessed as mycelial growth inhibition in potato dextrose agar media at 25 degC measured after 3 days. Particulars: 72 h.
Assay [10] relates to Ceratobasidium cereale. Briefly: Antifungal activity against Ceratobasidium cereale two generation induced iprodione-resistant wheat field isolate HN100R assessed as mycelial growth inhibition in potato dextrose agar media at 25 degC measured after 3 days. Conditions: 72 h.
Assay [11] deals with Ceratobasidium cereale. Briefly: Antifungal activity against Ceratobasidium cereale iprodione-sensitive wheat field isolate HN49 assessed as mycelial growth inhibition in potato dextrose agar media at 25 degC measured after 3 days. Conditions: isolate HN49, 72 h.
The subject of assay [12] is Ceratobasidium cereale. Briefly: Antifungal activity against Ceratobasidium cereale iprodione-sensitive wheat field isolate HD10 assessed as mycelial growth inhibition in potato dextrose agar media at 25 degC measured after 3 days. Particulars: isolate HD10, 72 h.
In assay [13] the test system is Ceratobasidium cereale. Briefly: Antifungal activity against Ceratobasidium cereale iprodione-sensitive wheat field isolate HL64 assessed as mycelial growth inhibition in potato dextrose agar media at 25 degC measured after 3 days. Particulars: isolate HL64, 72 h.
Assay [14] deals with Ceratobasidium cereale. Briefly: Antifungal activity against Ceratobasidium cereale iprodione-sensitive wheat field isolate HQ12 assessed as mycelial growth inhibition in potato dextrose agar media at 25 degC measured after 3 days. Particulars: isolate HQ12, 72 h.
The subject of assay [15] is Ceratobasidium cereale. Briefly: Antifungal activity against Ceratobasidium cereale two generation induced iprodione-resistant wheat field isolate HD10R assessed as mycelial growth inhibition in potato dextrose agar media at 25 degC measured after 3 days. Conditions: 72 h.
Assay [16] relates to Ceratobasidium cereale. Briefly: Antifungal activity against Ceratobasidium cereale wheat field isolate assessed as mycelial growth inhibition at 10 ug/mL in potato dextrose agar media 25 degC measured after 5 days.

In brackets after ≈: the same amount, converted by molar mass. Activity calls are given as the source filed them. No cut-off for these calls is given here.

The EC50 is the concentration at which the effect is half-maximal.

In the case of `CC(C)NC(=O)N1CC(=O)N(c2cc(Cl)cc(Cl)c2)C1=O` [IPRODIONE], the concentration giving a half-maximal response (EC50) in assay [1] was above 100 mg/L; in assay [2] it was 0.35 mg/L (≈ 1.06 µM); in [3], above 100 mg/L; in assay [4], 0.357 mg/L (≈ 1.08 µM); in assay [5], 0.419 mg/L (≈ 1.27 µM); in assay [6], above 100 mg/L. Further, the half-maximal effective concentration (EC50) is 0.249 mg/L (≈ 0.754 µM) in assay [7]; above 100 mg/L in assay [8]; above 100 mg/L in assay [9]; above 100 mg/L in assay [10]; 0.481 mg/L (≈ 1.46 µM) in assay [11]; 0.46 mg/L (≈ 1.39 µM) in assay [12]. The EC50 in assay [13] was 0.372 mg/L (≈ 1.13 µM); in assay [14], 0.725 mg/L (≈ 2.2 µM); in [15], above 100 mg/L. In addition, the result in [16] was Active.
On to `CC1COC(Cn2cncn2)(c2ccc(Oc3ccc(Cl)cc3)cc2Cl)O1` (stereo unspecified) [DIFENOCONAZOLE], for which the concentration for a half-maximal effect (EC50) in assay [1] was found to be 0.06 mg/L (≈ 0.148 µM); in assay [2], 0.037 mg/L (≈ 0.0911 µM); in assay [3], 0.074 mg/L (≈ 0.182 µM); in assay [4] it was 0.04 mg/L (≈ 0.0985 µM); in assay [5], 0.062 mg/L (≈ 0.153 µM); in assay [6], 0.057 mg/L (≈ 0.14 µM). In addition, the EC50 in assay [7] came to 0.095 mg/L (≈ 0.234 µM); in assay [8], 0.092 mg/L (≈ 0.226 µM); in assay [9], 0.034 mg/L (≈ 0.0837 µM); in assay [10], 0.01 mg/L (≈ 0.0246 µM); in [11], 0.07 mg/L (≈ 0.172 µM); in assay [12], 0.066 mg/L (≈ 0.162 µM). For the same compound, the concentration giving a half-maximal response (EC50) came to 0.032 mg/L (≈ 0.0788 µM) in assay [13], 0.082 mg/L (≈ 0.202 µM) in [14] and 0.07 mg/L (≈ 0.172 µM) in [15].
In the case of `N#Cc1c[nH]cc1-c1cccc2c1OC(F)(F)O2` [FLUDIOXONIL], the concentration giving a half-maximal response (EC50) in assay [1] is above 100 mg/L; in assay [2] it was 0.026 mg/L (≈ 0.105 µM); in [3] it was above 100 mg/L; in [4] it was 0.015 mg/L (≈ 0.0604 µM); in assay [5], 0.033 mg/L (≈ 0.133 µM); in assay [6], above 100 mg/L. In addition, the half-maximal effective concentration (EC50) in assay [7] was 0.024 mg/L (≈ 0.0967 µM); in assay [8], above 100 mg/L; in assay [9] it was above 100 mg/L; in assay [10] it was above 100 mg/L; in assay [11], 0.026 mg/L (≈ 0.105 µM); in assay [12], 0.05 mg/L (≈ 0.201 µM). Also, the EC50 in assay [13] was 0.022 mg/L (≈ 0.0886 µM); in assay [14] it was 0.032 mg/L (≈ 0.129 µM); in [15], above 100 mg/L.
